Test results published in patent US10065972B2, “Bicyclic or tricyclic heterocyclic compound” (MITSUBISHI TANABE PHARMA CORPORATION, priority 2014, dated 2018).

Each compound was assayed against human recombinant KAT-II (Homo sapiens (Human), UniProt Q8N5Z0) (assay: KAT-II inhibitory test). Conditions: 3.0 μmol/L kynurenine, 37° C., 1 hr, pH 8.0; kynurenic acid quantified by HPLC.
Assay type: biochemical
Description: The compounds described in the above-mentioned Examples were used for the KAT-II inhibitory test.
Preparation of Human Recombinant KAT-II
Human recombinant KAT-II was prepared as follows.
His tag and maltose binding protein tag were added to the N-terminal of a gene encoding human KAT-II (Genbank accession number: AF481738.1), and the obtained gene was incorporated into pET32 (Merck Nihon Millipore), which is an Escherichia coli expression vector. Human recombinant KAT-II produced by BL21(DE3) Escherichia coli (Merck Nihon Millipore, 69450) transformed using the plasmid was purified using an amylose resin column (New England Biolabs, #800-21 L).
The inhibitory action of the test compound on human recombinant KAT-II was determined by the following method.
To a reaction mixture (45 μL) containing 3.0 μmol/L kynurenine, 10 μmol/L pyridoxal phosphate, 2.0 ng/μL human recombinant KAT-II, and 150 mmol/L tris(hydroxymethyl)aminomethane-acetate buffer (pH 8.0) was added a 10% dimethyl sulfoxide solution (5 μL) of each test compound prepared, and the mixture was reacted at 37° C. for 1 hr. After the reaction, 50% trichloroacetic acid (5 μL) was added to terminate the reaction.
The resultant kynurenic acid was quantified as follows by high performance liquid chromatography. An enzyme reaction mixture was separated by an octadecylsilane reversed-phase column (SC-50DS, Eicom Corporation; mobile phase: 250 mmol/L zinc acetate, 50 mmol/L sodium acetate, and 5.0% acetonitrile (pH 6.2)) incubated at 30° C., and kynurenic acid was quantified using a fluorescence detector (RF-20Axs, Shimadzu Corporation) at excitation wavelength 354 nm, detection wavelength 460 nm. The analytical curve was drawn every time by an external standard method. Each test compound was tested by dual measurement at each concentration.

Chain of human recombinant KAT-II (Q8N5Z0 30-425): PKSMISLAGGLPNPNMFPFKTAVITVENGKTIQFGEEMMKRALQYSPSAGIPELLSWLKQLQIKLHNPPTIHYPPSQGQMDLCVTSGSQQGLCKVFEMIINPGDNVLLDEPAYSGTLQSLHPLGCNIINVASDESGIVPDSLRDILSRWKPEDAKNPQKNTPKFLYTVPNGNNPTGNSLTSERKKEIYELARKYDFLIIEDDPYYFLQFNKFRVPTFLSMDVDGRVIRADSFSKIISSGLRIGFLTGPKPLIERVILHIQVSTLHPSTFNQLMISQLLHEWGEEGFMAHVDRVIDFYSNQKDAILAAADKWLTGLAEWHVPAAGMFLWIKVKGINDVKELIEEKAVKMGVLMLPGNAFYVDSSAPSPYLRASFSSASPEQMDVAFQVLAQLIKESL

| SMILES | IC50 |
| --- | --- |
| Cc1ccccc1-c1nc2sc([C@H]3CCCN3C(=O)Oc3ccccc3)nc2c(=O)[nH]1 [Example 69, (R)-2-[5-(2-methylphenyl)-7-oxo-6,7-dihydro[1,3]thiazolo[5,4-d]pyrimidin-2-yl]pyrrolidine-1-carboxylic acid phenyl ester] | 40 nM |
| CC(C)(F)c1nc2sc(N3CCCN3C(=O)Cc3ccccc3)nc2c(=O)[nH]1 [Example 133, 5-(2-fluoropropan-2-yl)-2-[2-(phenylacetyl)pyrazolidin-1-yl]-6H-[1,3]thiazolo[5,4-d]pyrimidin-7-one] | 150 nM |
| Cn1c(-c2ccccn2)nc2sc(N3CCC[C@@H]3C(=O)NCc3ccccc3)nc2c1=O [Example 194, (R)-N-benzyl-1-[6-methyl-7-oxo-5-(pyridin-2-yl)-6,7-dihydro-[1,3]thiazolo[5,4-d]pyrimidin-2-yl]pyrrolidine-2-carboxamide] | 76 nM |
| CC(C)n1c(C(F)(F)F)nc2sc([C@H]3CCCN3C(=O)NCc3ccccc3Cl)nc2c1=O [Example 11, (R)-N-(2-chlorobenzyl)-2-[7-oxo-6-(propan-2-yl)-5-trifluoromethyl-6,7-dihydro[1,3]thiazolo[5,4-d]pyrimidin-2-yl]pyrrolidine-1-carboxamide] | 6200 nM |
| COCc1nc2sc(N3CCC[C@@H]3C(=O)NCc3ccccc3)nc2c(=O)n1C1CC1 [Example 258, (R)-N-benzyl-1-[6-cyclopropyl-5-methoxymethyl-7-oxo-6,7-dihydro[1,3]thiazolo[5,4-d]pyrimidin-2-yl]pyrrolidine-2-carboxamide] | 180 nM |
| CC(C)c1cc(=O)n2nc([C@H]3CCCN3C(=O)Cc3ccc(F)cc3)sc2n1 [Example 143, 2-{(R)-1-[2-(4-fluorophenyl)acetyl]pyrrolidin-2-yl}-7-(propan-2-yl)-5H-[1,3,4]thiadiazolo[3,2-a]pyrimidin-5-one] | 2200 nM |
| CCc1cc(=O)n2nc(N3CCC[C@@H]3C(=O)NCc3ccccc3)sc2c1 [Example 699, (R)-N-benzyl-1-(7-ethyl-5-oxo-5H-[1,3,4]thiadiazolo[3,2-a]pyridin-2-yl)pyrrolidine-2-carboxamide] | 230 nM |
| O=C(Oc1ccccc1)N1CCC[C@@H]1c1nc2c(=O)[nH]c(C3(CF)CC3)nc2s1 [Example 80, (R)-2-{5-[1-(fluoromethyl)cyclopropyl]-7-oxo-6,7-dihydro[1,3]thiazolo[5,4-d]pyrimidin-2-yl}pyrrolidine-1-carboxylic acid phenyl ester] | 8.6 nM |
| CCc1nc2sc(N3CCC[C@@H]3C(=O)NCc3ccccc3Cl)nn2c(=O)c1F [Example 678, (R)-N-(2-chlorobenzyl)-1-(7-ethyl-6-fluoro-5-oxo-5H-[1,3,4]thiadiazolo[3,2-a]pyrimidin-2-yl)pyrrolidine-2-carboxamide] | 19 nM |
| Cc1noc(-c2nc3sc([C@H]4CCCN4C(=O)Oc4ccccc4)nc3c(=O)n2C)n1 [Example 19, (R)-2-[6-methyl-5-(3-methyl-[1,2,4]oxadiazol-5-yl)-7-oxo-6,7-dihydro[1,3]thiazolo[5,4-d]pyrimidin-2-yl]pyrrolidine-1-carboxylic acid phenyl ester] | 43 nM |
| CCc1nc2sc([C@H]3CCCN3C(=O)CN3CCCc4ccccc43)nc2c(=O)n1C [Example 14, (R)-2-{1-[2-(3,4-dihydro-2H-quinolin-1-yl)acetyl]pyrrolidin-2-yl}-5-ethyl-6-methyl-6H-[1,3]thiazolo[5,4-d]pyrimidin-7-one] | 57 nM |
| CCc1nc2sc(N3CC[C@@H]3C(=O)NCc3ccccc3)nc2c(=O)n1C [Example 233, (R)-N-benzyl-1-(5-ethyl-6-methyl-7-oxo-6,7-dihydro-[1,3]thiazolo[5,4-d]pyrimidin-2-yl)azetidine-2-carboxamide] | 120 nM |
| C[C@H](c1nc2c(=O)[nH]c(C3(Cl)CC3)nc2s1)N(C)C(=O)Oc1ccccc1 [Example 85, N-{(R)-1-[5-(1-chlorocyclopropyl)-7-oxo-6,7-dihydro[1,3]thiazolo[5,4-d]pyrimidin-2-yl]ethyl}-N-methylcarbamic acid phenyl ester] | 170 nM |
| CC(C)(F)c1nc2sc(N3CCCN3C(=O)Oc3ccccc3)nc2c(=O)[nH]1 [Example 131, 2-[5-(2-fluoropropan-2-yl)-7-oxo-6,7-dihydro[1,3]thiazolo[5,4-d]pyrimidin-2-yl]pyrazolidine-1-carboxylic acid phenyl ester] | 110 nM |
| CCc1nc2sc([C@H]3CCCN3C(=O)NCc3ccccc3)nc2c(=O)n1C [Example 9, (R)-N-benzyl-2-(5-ethyl-6-methyl-7-oxo-6,7-dihydro[1,3]thiazolo[5,4-d]pyrimidin-2-yl)pyrrolidine-1-carboxamide] | 250 nM |
| CCc1c(C)nc2sc([C@H]3CCCN3C(=O)Oc3ccccc3)nn2c1=O [Example 148, (R)-2-(6-ethyl-7-methyl-5-oxo-5H-[1,3,4]thiadiazolo[3,2-a]pyrimidin-2-yl)pyrrolidine-1-carboxylic acid phenyl ester] | 230 nM |
| O=C(NCc1ccccc1)[C@H]1CCCN1c1nc2c(=O)[nH]c(-c3ccccc3F)nc2s1 [Example 489, (R)-N-benzyl-1-[5-(2-fluorophenyl)-7-oxo-6,7-dihydro[1,3]thiazolo[5,4-d]pyrimidin-2-yl]pyrrolidine-2-carboxamide] | 6 nM |
| CC(C)c1cc(=O)n2nc([C@H]3CCCN3C(=O)N[C@@H]3CCc4ccccc43)sc2n1 [Example 168, (R)-N-((R)-indan-1-yl)-2-[5-oxo-7-(propan-2-yl)-5H-[1,3,4]thiadiazolo[3,2-a]pyrimidin-2-yl]pyrrolidine-1-carboxamide] | 410 nM |
| CC(C)Nc1nc2sc(N3CCC[C@@H]3C(=O)NCc3ccccc3)nc2c(=O)n1C [Example 341, (R)-N-benzyl-1-{6-methyl-7-oxo-5-[(propan-2-yl)amino]-6,7-dihydro[1,3]thiazolo[5,4-d]pyrimidin-2-yl}pyrrolidine-2-carboxamide] | 11 nM |
| CN1CCC(n2c(C(F)(F)F)nc3sc(N4CCC[C@@H]4C(=O)NCc4ccccc4)nc3c2=O)CC1 [Example 264, (R)-N-benzyl-1-[6-(1-methylpiperidin-4-yl)-7-oxo-5-trifluoromethyl-6,7-dihydro-[1,3]thiazolo[5,4-d]pyrimidin-2-yl]pyrrolidine-2-carboxamide] | 160 nM |
| CCn1c(C(F)F)nc2sc(N3CCC[C@@H]3C(=O)NCc3cccs3)nc2c1=O [Example 309, (R)-1-(5-difluoromethyl-6-ethyl-7-oxo-6,7-dihydro-[1,3]thiazolo[5,4-d]pyrimidin-2-yl)-N-[(thiophen-2-yl)methyl]pyrrolidine-2-carboxamide] | 61 nM |
| Cc1cccc(CC(=O)N2CCCN2c2nc3c(=O)[nH]c(C(C)(C)F)nc3s2)c1 [Example 134, 5-(2-fluoropropan-2-yl)-2-{2-[2-(3-methylphenyl)acetyl]pyrazolidin-1-yl}-6H-[1,3]thiazolo[5,4-d]pyrimidin-7-one] | 230 nM |
| CC1(Cn2c(C(F)(F)F)nc3sc(N4CCC[C@@H]4C(=O)NCc4ccccc4)nc3c2=O)COC1 [Example 227, (R)-N-benzyl-1-{6-[(3-methyloxetan-3-yl)methyl]-7-oxo-5-trifluoromethyl-6,7-dihydro[1,3]thiazolo[5,4-d]pyrimidin-2-yl}pyrrolidine-2-carboxamide] | 72 nM |
